Measured values reported in article PMC6009881, “New sulfurated derivatives of cinnamic acids and rosmaricine as inhibitors of STAT3 and NF-κB transcription factors” (Journal of Enzyme Inhibition and Medicinal Chemistry, 2017).
Read-outs that look alike come from different tables or passages of the source.

Experiments:
STAT3 = conditions: in some settings; read-out: STAT3 inhibition IC50; cited from earlier work
STAT3-SH2 domain [1] = target: T1, STAT3-SH2 domain (Homo sapiens, UniProt P40763); test: STAT AlphaScreen-based assay (STAT3); type: binding; conditions: for IC50 / inhibition at 30 µM: AlphaScreen assay; for IC50: read-out: STAT3 IC50 ±SD; for inhibition at 30 µM: read-out: STAT3 % inhibition ± SD at 30 μM
[2] = test system: STAT3 reporter activity in HeLa cells; test: STAT3 luciferase reporter gene assay; type: cell-based; conditions: Homo sapiens, 2 h pretreatment, oncostatin M 10 ng/ml 4 h, read-out: STAT3 reporter assay (HeLa) IC50 ±SD
Procedure: STAT3 reporter HeLa stable cell lines (Signosis Inc, Santa Clara, CA) were incubated in a 96-well microplate for 24 h. Cells were pretreated with test compounds for 2 h, and 10 ng/ml (w/v) of oncostatin M were applied and incubated for 4 h. Cells were washed with medium not supplemented with phenol red, and Steady-Glo® reagent (Promega, Madison, WI) was applied. After 15 min incubation, the signals were detected by ARVO Light 1420 (PerkinElmer Life Sciences, Waltham, MA). The relative signal intensity was calculated in each well as the ratio for the mean signal of vehicle.

[3] = test system: NF-κB promoter activity in HCT-116 cells; test: Luciferase reported NF-κB promoter activity assay; type: cell-based; conditions: Homo sapiens, 2 h pre-treatment, TNF-α 10 ng/ml, NA = not active up to 100 μM, read-out: NF-κB promoter assay (HCT-116) IC50 ±SD
Procedure: To measure the NF-κB promoter activity, HCT-116 cells were seeded in 100 mm dish and transiently transfected with 6 μg of DNA (NF-κB plasmid, containing luciferase reporter gene[57] with turbofect reagent (Carlo Erba Reagents). After 24 h, cells were seeded in 48-well plates (40.000 cells per well). On the next day, cells were incubated with our compounds for 2 h (pre-treatment) and then TNF-α was added in every well at (10 ng/ml). After 5–6 h, luciferase activity was measured by using Neolite reagent (PerkinElmer Life Sciences, Waltham, MA) according to the manufacturer’s instructions.

SH2-domain of STAT1 = target: T2, SH2-domain of STAT1 (Homo sapiens, UniProt P42224); test: STAT AlphaScreen-based assay (STAT1 selectivity); type: binding; conditions: for inhibition at 30 µM: read-out: STAT1 % inhibition ± SD at 30 μM, 30 μM; for IC50: read-out: STAT1 IC50 ±SD
T2 sequence (P42224 1-750): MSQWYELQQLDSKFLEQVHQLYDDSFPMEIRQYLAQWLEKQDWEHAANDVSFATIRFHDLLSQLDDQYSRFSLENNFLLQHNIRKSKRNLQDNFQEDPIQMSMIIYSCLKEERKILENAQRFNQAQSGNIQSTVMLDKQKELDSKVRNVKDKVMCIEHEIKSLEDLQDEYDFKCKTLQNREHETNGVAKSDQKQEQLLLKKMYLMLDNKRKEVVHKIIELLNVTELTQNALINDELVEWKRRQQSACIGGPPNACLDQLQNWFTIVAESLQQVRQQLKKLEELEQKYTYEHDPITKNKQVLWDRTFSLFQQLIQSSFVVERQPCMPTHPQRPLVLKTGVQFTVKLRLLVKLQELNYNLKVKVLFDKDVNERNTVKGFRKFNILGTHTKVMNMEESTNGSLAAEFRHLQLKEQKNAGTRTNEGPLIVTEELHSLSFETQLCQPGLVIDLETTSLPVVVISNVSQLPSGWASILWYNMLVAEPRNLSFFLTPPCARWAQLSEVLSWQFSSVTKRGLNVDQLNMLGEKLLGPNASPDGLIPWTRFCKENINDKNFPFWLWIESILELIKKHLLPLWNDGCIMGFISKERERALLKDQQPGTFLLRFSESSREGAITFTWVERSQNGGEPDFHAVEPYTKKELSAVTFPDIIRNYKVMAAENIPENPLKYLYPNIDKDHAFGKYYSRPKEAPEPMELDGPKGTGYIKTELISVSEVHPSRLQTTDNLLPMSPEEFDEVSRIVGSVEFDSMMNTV
Procedure: STAT3 inhibitory activity of the described compounds was tested by the AlphaScreen-based assay to evaluate the potential inhibition of the interaction between STAT3-SH2 domain and pTyr-containing peptides according to the previously reported procedure. For the most interesting compounds, selectivity tests versus STAT1 were performed.
The new sulfurated-drug hybrids, together with their parent compounds have been submitted to the AlphaScreen-based assay, to investigate their ability to bind STAT3 directly, through the evaluation of the inhibition of the binding of SH2-containing proteins to their correspondent phosphopeptides, the physiological ligands. […] Since AlphaScreen is a cell-free assay, not always there is a correspondence between the potency of STAT3 inhibition and cytotoxicity, probably due to not optimal physicochemical properties of the tested compounds, such as solubility and chemical stability in the culture medium and cell permeation.

HCT-116 cells = test: MTT assay, cytotoxicity on HCT-116; type: cell-based, human; conditions: for IC50 at 48 h: human, HCT-116 cells; for IC50 at 48 h / IC50: MTT assay, NA = not active up to 100 μM, read-out: Cytotoxicity (HCT-116) IC50 ±SD, 48 h
Procedure: Following the same protocol used for previous cytotoxicity assays by N. Ferri[55], cells were seeded in 48-well plate (40.000 cells/well) and, after 24 h, they were incubated with different concentrations of our compounds for 48 h.
The determination of the conversion of MTT (3-(4,5-dimethyl-2-thiazolyl)-2,5-diphenyl-2H-tetrazolium bromide) to formazan was determined by using a commercially available kit (Millipore, Billerica, MA), according to the manufacturer’s instructions.

[4] = test system: lymphocytic leukemia P388; design: method as in PMID 8003178; conditions: injected i.p. in mice, 24 h after the tumor implants; data from National Cancer Institute; cited from earlier work
[5] = test system: MCF-7 (hormone sensitive breast cancer) cells; test: Cytotoxicity against MCF-7 cells; type: cell-based; conditions: in comparison to HCT-116
[6] = test system: human smooth muscle cells (hSMC); test: Cytotoxicity versus normal human smooth muscle cells; type: cell-based
[7] = test system: PC3 subcutaneous xenografts; design: method as in PMID 18266964; conditions: in vivo; cited from earlier work
STAT3-SH2 domain [8] = target: T1, STAT3-SH2 domain; design: method as in PMID 28097912; conditions: maximum tested concentration 30 μM; read-out: STAT3-SH2 domain binding IC50 (AlphaScreen), previously described hybrids; cited from earlier work
[9] = test system: different tumoral cell lines; design: method as in PMID 18266964, PMID 22212895; conditions: cited from earlier work

T1 sequence (P40763 whole entry, the tested form may be a part): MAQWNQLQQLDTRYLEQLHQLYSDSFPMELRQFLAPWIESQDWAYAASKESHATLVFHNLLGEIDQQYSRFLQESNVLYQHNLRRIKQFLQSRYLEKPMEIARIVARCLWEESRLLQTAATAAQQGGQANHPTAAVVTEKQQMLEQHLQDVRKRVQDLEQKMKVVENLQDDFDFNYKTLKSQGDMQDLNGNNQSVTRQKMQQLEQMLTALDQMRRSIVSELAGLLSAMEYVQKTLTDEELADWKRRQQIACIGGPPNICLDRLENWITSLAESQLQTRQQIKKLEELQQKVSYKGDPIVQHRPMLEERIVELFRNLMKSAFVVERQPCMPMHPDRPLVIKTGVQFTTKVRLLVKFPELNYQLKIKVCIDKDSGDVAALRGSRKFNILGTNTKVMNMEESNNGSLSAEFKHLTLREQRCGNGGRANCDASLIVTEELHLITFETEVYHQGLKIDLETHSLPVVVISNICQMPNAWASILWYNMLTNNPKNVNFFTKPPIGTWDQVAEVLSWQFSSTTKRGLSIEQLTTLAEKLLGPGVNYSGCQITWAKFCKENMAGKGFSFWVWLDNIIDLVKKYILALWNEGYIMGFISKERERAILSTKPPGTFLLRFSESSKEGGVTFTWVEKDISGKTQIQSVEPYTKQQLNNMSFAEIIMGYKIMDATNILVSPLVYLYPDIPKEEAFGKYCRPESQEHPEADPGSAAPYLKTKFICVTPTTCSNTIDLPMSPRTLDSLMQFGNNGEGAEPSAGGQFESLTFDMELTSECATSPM

Row | IC50 (STAT3-SH2 domain [1]) [nM] | melting point | IC50 [2] [µM] | inhibition at 30 µM (STAT3-SH2 domain [1]) [%] | IC50 [3] [µM] | inhibition at 30 µM (SH2-domain of STAT1) [%] | IC50 (SH2-domain of STAT1) [µM] | SMILES | IC50 (STAT3) [µM] | IC50 at 48 h (HCT-116 cells) [µM] | IC50 (HCT-116 cells) [µM] | activity against lymphocytic leukemia P388 [4] | fold increase of inhibitory potency on STAT3 (STAT3-SH2 domain [1]; in comparison to rosmaricine) [fold] | cytotoxicity against MCF-7 cells [5] | fold increase of antiproliferative activity (HCT-116 cells; HCT-116, in comparison to rosmaricine) [fold] | selectivity index (hSMC versus HCT-116) [6] | IC50 ([6]; Homo sapiens, HSMC) [µM] | growth of PC3 in subcutaneous xenografts [7] | IC50 (STAT3-SH2 domain [8]) [nM] | in vitro antiproliferative activity [9]
1 | > 30000 | – | – | – | – | – | – | O=C(O)/C=C/c1ccc(O)c(O)c1 [Compound 19, caffeic acid, reference compound] | 70 to 100 | – | – | – | – | – | – | – | – | – | – | –
2 | 800 ± 200 | 133.1 to 134.8 °C | 60.6 ± 2.8 | 100.1 ± 0.1 | 128 ± 8.9 | 85.7 ± 4.3 | 17 ± 1.2 | CS(=O)(=O)SCCOC(=O)/C=C/c1ccc(O)c(O)c1 [Compound 21, (E)-2-(methylsulfonylthio)ethyl 3-(3,4-dihydroxyphenyl)acrylate] | – | 123 ± 17.3 | – | – | – | – | – | – | – | – | – | –
3 | 5500 ± 200 | – | 94.4 ± 26.1 | 70 ± 1.7 | 163 ± 11.1 | 37.7 ± 7.5 | > 30 | C=CCSSCCOC(=O)/C=C/c1ccc(O)c(O)c1 [Compound 23, (E)-2-(allyldisulfanyl)ethyl 3-(3,4-dihydroxyphenyl)acrylate] | – | 73 ± 8 | – | – | – | – | – | – | – | – | – | –
4 | 13200 ± 900 | 199.5 to 201.5 °C | 40 ± 1.5 | 66.7 ± 0.5 | 40.6 ± 3 | 21.5 ± 1.8 | > 30 | O=C(/C=C/c1ccc(O)c(O)c1)Oc1ccc(-c2cc(=S)ss2)cc1 [Compound 24, (E)-4-(3-thioxo-3H-1,2-dithiol-5-yl)phenyl 3-(3,4-dihydroxyphenyl)acrylate] | – | 46.7 | 46.7 ± 4.1 | – | – | – | – | – | – | – | – | –
5 | 1900 ± 100 | 198.2 to 202.5 °C | 42.4 ± 2.4 | 99.7 | 43.4 ± 6.9 | 91.8 | 10 ± 0.6 | CC(C)c1cc2c(c(O)c1O)C13CCCC(C)(C)C1C(OC3=O)C2N (centres unmarked) [Compound 30, rosmaricine] | – | 65 | 65.2 ± 2.3 | inactive or endowed with borderline activity | – | – | – | – | – | – | – | –
6 | 2900 ± 200 | 243.2 to 249.7 °C | > 100 | 94.5 ± 0.4 | 73 ± 13.2 | 58.8 ± 5.9 | 19.7 ± 4 | CC(C)c1cc2c(c(O)c1O)C13CCCC(C)(C)C1C(OC3=O)C2NC(=O)c1ccc(-c2cssc2=S)cc1 (centres unmarked) [Compound 33, N-[4-(3-thioxo-3H-1,2-dithiol-4-yl)benzoyl]rosmaricine] | – | 65.4 ± 3.9 | – | – | – | – | – | – | – | – | – | –
7 | – | – | – | – | – | – | – | CCCC(CCC)C(=O)OCCSS(C)(=O)=O [a, 2-((methylsulfonyl)thio)ethyl 2-propylpentanoate] | – | – | – | – | – | – | – | – | – | inhibited the growth of PC3 in subcutaneous xenografts | 700 | good antiproliferative activity in micromolar concentrations

Row | SMILES | IC50 (STAT3-SH2 domain [1]) [nM] | melting point | IC50 [2] [µM] | inhibition at 30 µM (STAT3-SH2 domain [1]) [%] | IC50 [3] [µM] | inhibition at 30 µM (SH2-domain of STAT1) [%] | IC50 (SH2-domain of STAT1) [µM] | IC50 (STAT3) [µM] | IC50 at 48 h (HCT-116 cells) [µM] | IC50 (HCT-116 cells) [µM] | activity against lymphocytic leukemia P388 [4] | fold increase of inhibitory potency on STAT3 (STAT3-SH2 domain [1]; in comparison to rosmaricine) [fold] | cytotoxicity against MCF-7 cells [5] | fold increase of antiproliferative activity (HCT-116 cells; HCT-116, in comparison to rosmaricine) [fold] | selectivity index (hSMC versus HCT-116) [6] | IC50 ([6]; Homo sapiens, HSMC) [µM] | growth of PC3 in subcutaneous xenografts [7] | IC50 (STAT3-SH2 domain [8]) [nM] | in vitro antiproliferative activity [9]
8 | CC(C)c1cc2c(c(O)c1O)C13CCCC(C)(C)C1C(OC3=O)C2NC(=O)CCCCSS(C)(=O)=O (centres unmarked) [Compound 31, N-[5-(methylsulfonyl)thiopentanoyl]rosmaricine] | 200 | 121.1 to 124.2 °C (dec.) | > 100 | 100.1 ± 0.1 | 53.3 ± 10.9 | 99.9 ± 0.3 | 2.8 ± 0.1 | – | 73.8 ± 0.9 | – | – | 10 | – | – | – | – | – | – | –
9 | C=CCSSCCC(=O)NC1c2cc(C(C)C)c(O)c(O)c2C23CCCC(C)(C)C2C1OC3=O (centres unmarked) [Compound 32, N-[3-(allyldisulfanyl)propanoyl]rosmaricine] | 2300 ± 400 | 206.9 to 209.2 °C | 37 ± 0.8 | 99.5 | 13 ± 0.7 | 23.9 ± 0.4 | > 30 | – | 3.5 ± 2.8 | – | – | – | confirmed, even at lower level | 19 | 6 | 21.2 | – | – | –
